Values quoted from earlier work as cited in EP1136875A2, “Small 3D emulsions with enhanced photographic response” (EASTMAN KODAK COMPANY, priority 2000, dated 2001).

Details: value is for the conjugate acid of the printed base

In order of falling “pKa's in water of the conjugate acids of some useful bases” value:
1. C[N+](C)(C)[O-] [(CH3)3N^+–O^-]  4.65
2. CC(=O)NCC(=O)O [CH3–CO–NH–CH2–CO2^-]  3.67
3. CC(=O)S [CH3–COS^-]  3.33
